Results reported in US4302465A, “Therapeutically active, substituted piperidines and pyrrolidines therapeutic compositions thereof and methods of use thereof” (priority 1979, dated 1981).
Values joined by “and” are separate entries in the source; they are usually repeats but may differ in a detail not shown here. Identical values can stand only once.

Experiments:
guinea pigs = assay: Local anaesthetic effect in guinea pigs after intracutaneous infiltration; assay type: in vivo; details: for Duration of Anaesthesia: 1.0% + adrenaline 5 μg/ml, 12 animals
sciatic nerve = assay: Local anaesthetic effect in rats after perineuronal injection close to the sciatic nerve; assay type: in vivo; details: for Duration of anaesthesia, Motoric Blockage / Duration of anaesthesia, Sensory Blockage: 1.0% + adr. 5 μg/ml, 10 animals, perineuronal, sciatic nerve
[1] = test system: arrhythmic heart-beats induced by ouabain; assay: Effect against arrhythmic heart-beats induced by ouabain in anaesthetized dogs; assay type: in vivo; details: for Duration of regularization / Number of regularized arrhythmias (percent) / Number of regularized arrhythmias: ouabain; for Number of regularized arrhythmias: count
rabbits = details: rabbit, in vivo
in vivo [2] = details: mouse
in vivo [3] = details: rat, iv

Structure (SMILES): Cc1cccc(C)c1NC(=O)C1CCCCN1CCO (racemic) [Substance S-1249, DL-N-(2-hydroxyethyl)pipecolinyl-2,6-dimethylanilide]
- local anaesthetic effect, in words (guinea pigs): local anaesthetic effect of the same order of magnitude as lidocaine and mepivacaine
- Duration of Anaesthesia (guinea pigs): 140 ± 8 min
- Duration of anaesthesia, Motoric Blockage (sciatic nerve): 83 ± 6 min
- Duration of anaesthesia, Sensory Blockage (sciatic nerve): 82 ± 6 min
- local anaesthetic effect, in words (sciatic nerve; perineuronal injection close to the sciatic nerve): equivalent local anaesthetic effect to lidocaine and mepivacaine
- effect against arrhythmic heart-beats induced by ouabain, in words [1]: effects equivalent to lidocaine and better than mepivacaine
- Duration of regularization ([1]; dose 1.0 mg/kg): 130 ± 40 min
- Number of regularized arrhythmias (percent) ([1]; dose 1.0 mg/kg): 65%
- Number of regularized arrhythmias ([1]; dose 1.0 mg/kg): 13
- Duration of regularization ([1]; dose 2.0 mg/kg): 280 ± 70 min
- Number of regularized arrhythmias (percent) ([1]; dose 2.0 mg/kg): 70%
- Number of regularized arrhythmias ([1]; dose 2.0 mg/kg): 17
- tissue irritation, in words (rabbits): considerably less tissue irritation
- LD50 (in vivo [2]): 57 mg/kg
- TD50 (in vivo [3]): 103 ± 8 mg/kg

Structure (SMILES): CCN(CC)CC(=O)Nc1c(C)cccc1C [Lidocaine, lidocaine, reference compound]
- Duration of Anaesthesia (guinea pigs): 132 ± 7 min
- Duration of anaesthesia, Motoric Blockage (sciatic nerve): 79 ± 5 min
- Duration of anaesthesia, Sensory Blockage (sciatic nerve): 77 ± 5 min
- Number of regularized arrhythmias (percent) ([1]; dose 1.0 mg/kg): 60%
- Number of regularized arrhythmias ([1]; dose 1.0 mg/kg): 12
- Duration of regularization ([1]; dose 2.0 mg/kg): 220 ± 30 min
- Number of regularized arrhythmias (percent) ([1]; dose 2.0 mg/kg): 79%
- Number of regularized arrhythmias ([1]; dose 2.0 mg/kg): 19

Structure (SMILES): Cc1cccc(C)c1NC(=O)C1CCCCN1C (centres unmarked) [Mepivacaine, mepivacaine, reference compound]
- Duration of Anaesthesia (guinea pigs): 152 ± 16 min
- Duration of anaesthesia, Motoric Blockage (sciatic nerve): 89 ± 4 min
- Duration of anaesthesia, Sensory Blockage (sciatic nerve): 87 ± 4 min
- Duration of regularization ([1]; dose 1.0 mg/kg): 110 ± 20 min
- Number of regularized arrhythmias (percent) ([1]; dose 1.0 mg/kg): 50%
- Number of regularized arrhythmias ([1]; dose 1.0 mg/kg): 5
- Duration of regularization ([1]; dose 2.0 mg/kg): 185 ± 50 min
- Number of regularized arrhythmias (percent) ([1]; dose 2.0 mg/kg): 50% and 60%
- Number of regularized arrhythmias ([1]; dose 2.0 mg/kg): 6
- LD50 (in vivo [2]): 31 mg/kg
- LD50 (in vivo [2]; iv): 31 mg/kg
- TD50 (in vivo [3]): 38 ± 3 mg/kg

Structure (SMILES): Cc1cccc(C)c1NC(=O)C1CCCC[N+]1(C)CCO (centres unmarked) [N-methyl-S-1249, N(quaternary-2-hydroxyethyl-N-methyl)pipecolinyl-2,6-dimethylanilide]
- local anaesthetic effect, in words (guinea pigs): local anaesthetic effect
- Duration of Anaesthesia (guinea pigs): 128 ± 12 min
- effect against arrhythmic heart-beats induced by ouabain, in words [1]: rhythm-regularizing effects
- Duration of regularization ([1]; dose 1.0 mg/kg): 180 ± 30 min
- Number of regularized arrhythmias (percent) ([1]; dose 1.0 mg/kg): 100%
- Number of regularized arrhythmias ([1]; dose 1.0 mg/kg): 4
- Duration of regularization ([1]; dose 2.0 mg/kg): 310 ± 50 min
- Number of regularized arrhythmias (percent) ([1]; dose 2.0 mg/kg): 100%
- Number of regularized arrhythmias ([1]; dose 2.0 mg/kg): 4
- LD50 (in vivo [2]; iv): 84 mg/kg
- TD50 (in vivo [3]): 125 mg/kg

Structure (SMILES): Cc1cccc(C)c1NC(=O)[C@@H]1CCCN1CCO [Substance S-1258, L-N-(2-hydroxyethyl)prolyl-2,6-dimethylanilide]
- local anaesthetic effect, in words (guinea pigs): better local anaesthetic effect than lidocaine
- Duration of Anaesthesia (guinea pigs): 111 ± 8 min
- effect against arrhythmic heart-beats induced by ouabain, in words [1]: effective against arrhythmic heartbeats induced by ouabain
- Duration of regularization ([1]; dose 1.0 mg/kg): 95 ± 20 min
- Number of regularized arrhythmias (percent) ([1]; dose 1.0 mg/kg): 83%
- Number of regularized arrhythmias ([1]; dose 1.0 mg/kg): 5
- Duration of regularization ([1]; dose 2.0 mg/kg): 195 ± 40 min
- Number of regularized arrhythmias (percent) ([1]; dose 2.0 mg/kg): 67%
- Number of regularized arrhythmias ([1]; dose 2.0 mg/kg): 4
- LD50 (in vivo [2]; iv): 110 mg/kg
- TD50 (in vivo [3]): 130 ± 10 mg/kg

Structure (SMILES): Cc1cccc(C)c1NC(=O)C1CCCCN1CCCO (centres unmarked) [Substance S-1265, N-(3-Hydroxypropyl)pipecolinyl-2,6-dimethylanilide]
- local anaesthetic effect, in words (guinea pigs): better local anaesthetic effect than lidocaine
- Duration of Anaesthesia (guinea pigs): 151 ± 6 min
- effect against arrhythmic heart-beats induced by ouabain, in words [1]: effects equivalent to lidocaine and mepivacaine
- Duration of regularization ([1]; dose 1.0 mg/kg): 120 ± 30 min
- Number of regularized arrhythmias (percent) ([1]; dose 1.0 mg/kg): 67%
- Number of regularized arrhythmias ([1]; dose 1.0 mg/kg): 4
- Duration of regularization ([1]; dose 2.0 mg/kg): 200 ± 40 min
- Number of regularized arrhythmias (percent) ([1]; dose 2.0 mg/kg): 83%
- Number of regularized arrhythmias ([1]; dose 2.0 mg/kg): 5
- LD50 (in vivo [2]; iv): 40 mg/kg
- TD50 (in vivo [3]): 80 ± 4 mg/kg
